Target: T1, AsPC-1 HiBiT-KRASG12D (Homo sapiens, UniProt P01116, G12D)
T1 construct: insert the HiBiT tag onto the N-terminus of one or more of the endogenous KRAS alleles; endogenous in cells; host or cells: AsPC-1 (ATCC CRL-1682), CRISPR-Cas9 knock-in clone, one tagged allele
Assay: HiBiT degradation assay (G12D), AsPC-1 HiBiT-KRASG12D cells
Format: cell-based
Conditions: 24 hours treatment; for Dmax: ASPC1, AsPC-1 HiBiT-KRASG12D cells, maximum degradation observed; for DC50: AsPC-1 HiBiT-KRASG12D cells, HiBiT luminescence
Procedure, shortened: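 24 h cmpd treatment, 37° C/5% CO2, AsPC-1 HiBiT-KRASG12D clone (CRISPR N-term tag). Alamar blue 1×, 4 h, fluorescence. PBS wash, Nano-Glo HiBiT lytic reagent, 45 min RT, luminescence. Triplicates.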

T1 sequence (P01116 1-188 isoform P01116-2 G12D): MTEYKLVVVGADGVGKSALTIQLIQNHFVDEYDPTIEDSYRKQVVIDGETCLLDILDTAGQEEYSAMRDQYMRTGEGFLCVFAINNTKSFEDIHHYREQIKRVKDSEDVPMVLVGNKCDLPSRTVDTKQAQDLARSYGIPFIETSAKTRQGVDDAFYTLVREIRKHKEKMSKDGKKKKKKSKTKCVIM

SMILES: CCc1cccc2cccc(-c3ncc4c(N5CC6CCC(C5)N6)nc(OC[C@]56CCCN5[C@H](COc5cc([C@H](C(=O)N7C[C@H](O)C[C@H]7C(=O)N[C@@H](C)c7ccc(-c8scnc8C)cc7)C(C)C)on5)CC6)nc4c3F)c12 [Compound 309, (2S,4R)-1-[(2R)-2-[3-[[(3S,8R)-8-[[4-(3,8-diazabicyclo[3.2.1]octan-3-yl)-7-(8-ethyl-1-naphthyl)-8-fluoro-pyrido[4,3-d]pyrimidin-2-yl]oxymethyl]-1,2,3,5,6,7-hexahydropyrrolizin-3-yl]methoxy]isoxazol-5-yl]-3-methyl-butanoyl]-4-hydroxy-N-[(1S)-1-[4-(4-methylthiazol-5-yl)phenyl]ethyl]pyrrolidine-2-carboxamide]
- Dmax: < 20%
- DC50: < 600 nM

SMILES: CCc1cccc2cc(O)cc(-c3ncc4c(N5CC6CCC(C5)N6)nc(OC[C@@]56CCCN5[C@H](CN5CCN(c7cc([C@H](C(=O)N8C[C@H](O)C[C@H]8C(=O)N[C@@H](C)c8ccc(-c9scnc9C)cc8)C(C)C)on7)CC5)CC6)nc4c3F)c12 [Compound 94, (2S,4R)-1-[(2R)-2-[3-(4-{[(3S,7aS)-7a-{[(4-{3,8-diazabicyclo[3.2.1]octan-3-yl}-7-(8-ethyl-3-hydroxynaphthalen-1-yl)-8-fluoropyrido[4,3-d]pyrimidin-2-yl)oxy]methyl}-hexahydro-1H-pyrrolizin-3-yl]methyl}piperazin-1-yl)-1,2-oxazol-5-yl]-3-methylbutanoyl]-4-hydroxy-N-[(1S)-1-[4-(4-methyl-1,3-thiazol-5-yl)phenyl]ethyl]pyrrolidine-2-carboxamide]
- Dmax: 80 to 100%
- DC50: < 600 nM

SMILES: CCc1cccc2cc(O)cc(-c3ncc4c(N5CCCCCC5)nc(OC[C@]56CCCN5[C@H](COc5cc([C@@H](C(=O)N7C[C@H](O)C[C@H]7C(=O)N[C@@H](C)c7ccc(-c8scnc8C)cc7)C(C)C)on5)CC6)nc4c3F)c12 [Compound 207, (2S,4R)-1-[(2S)-2-(3-{[(3S,7aR)-7a-({[4-(azepan-1-yl)-7-(8-ethyl-3-hydroxynaphthalen-1-yl)-8-fluoropyrido[4,3-d]pyrimidin-2-yl]oxy}methyl)-hexahydro-1H-pyrrolizin-3-yl]methoxy}-1,2-oxazol-5-yl)-3-methylbutanoyl]-4-hydroxy-N-[(1S)-1-[4-(4-methyl-1,3-thiazol-5-yl)phenyl]ethyl]pyrrolidine-2-carboxamide]
- DC50: > 3000 nM

SMILES: CCc1cccc2cc(O)cc(-c3ncc4c(N5CCCCCC5)nc(OC[C@@H]5CC[C@@H](COC(=O)N6CCN(c7cc([C@H](C(=O)N8C[C@H](O)C[C@H]8C(=O)N[C@@H](C)c8ccc(-c9scnc9C)cc8)C(C)C)on7)[C@H](C)C6)N5C)nc4c3F)c12 [Compound 230, [(2S,5S)-5-[[4-(azepan-1-yl)-7-(8-ethyl-3-hydroxy-1-naphthyl)-8-fluoro-pyrido[4,3-d]pyrimidin-2-yl]oxymethyl]-1-methyl-pyrrolidin-2-yl]methyl (3R)-4-[5-[(1R)-1-[(2S,4R)-4-hydroxy-2-[[(1S)-1-[4-(4-methylthiazol-5-yl)phenyl]ethyl]carbamoyl]pyrrolidine-1-carbonyl]-2-methyl-propyl]isoxazol-3-yl]-3-methyl-piperazine-1-carboxylate]
- Dmax: 60 to 80%
- DC50: < 600 nM

SMILES: CCc1cccc2cc(O)cc(-c3ncc4c(N5CC6CCC(C5)N6)nc(OC[C@]56CCCN5[C@@H](COc5cc([C@@H](C(=O)N7C[C@H](O)C[C@H]7C(=O)N[C@@H](C)c7ccc(-c8scnc8C)cc7)C(C)C)on5)CC6)nc4c3F)c12 [Compound 28, (2S,4R)-1-[(2S)-2-(3-{[(3R,7aR)-7a-{[(4-{3,8-diazabicyclo[3.2.1]octan-3-yl}-7-(8-ethyl-3-hydroxynaphthalen-1-yl)-8-fluoropyrido[4,3-d]pyrimidin-2-yl)oxy]methyl}-hexahydro-1H-pyrrolizin-3-yl]methoxy}-1,2-oxazol-5-yl)-3-methylbutanoyl]-4-hydroxy-N-[(1S)-1-[4-(4-methyl-1,3-thiazol-5-yl)phenyl]ethyl]pyrrolidine-2-carboxamide]
- DC50: > 3000 nM

SMILES: CCc1cccc2cc(O)cc(-c3ncc4c(N5CC6CCC(C5)N6)nc(OCCN5CCC(CN6CC7(C6)CN(c6cc([C@H](C(=O)N8C[C@H](O)C[C@H]8C(=O)N[C@@H](C)c8ccc(-c9scnc9C)cc8)C(C)C)on6)C7)CC5)nc4c3F)c12 [Compound 235, (2S,4R)-1-[(2R)-2-[3-[6-[1-[2-[[4-(3,8-diazabicyclo[3.2.1]octan-3-yl)-7-(8-ethyl-3-hydroxy-1-naphthyl)-8-fluoro-pyrido[4,3-d]pyrimidin-2-yl]oxyethyl]-4-piperidyl]methyl]-2,6-diazaspiro[3.3]heptan-2-yl]isoxazol-5-yl]-3-methyl-butanoyl]-4-hydroxy-N-[(1S)-1-[4-(4-methylthiazol-5-yl)phenyl]ethyl]pyrrolidine-2-carboxamide]
- Dmax: 80 to 100%
- DC50: < 600 nM

SMILES: CCc1cccc2cc(O)cc(-c3ncc4c(N5CC6CCC(C5)N6)nc(OC[C@@]56CCCN5[C@H](CN5CCN(c7cc([C@@H](C(=O)N8C[C@H](O)C[C@H]8C(=O)N[C@@H](C)c8ccc(-c9scnc9C)cc8)C(C)C)on7)CC5)CC6)nc4c3F)c12 [Compound 95, (2S,4R)-1-[(2S)-2-[3-(4-{[(3S,7aS)-7a-{[(4-{3,8-diazabicyclo[3.2.1]octan-3-yl}-7-(8-ethyl-3-hydroxynaphthalen-1-yl)-8-fluoropyrido[4,3-d]pyrimidin-2-yl)oxy]methyl}-hexahydro-1H-pyrrolizin-3-yl]methyl}piperazin-1-yl)-1,2-oxazol-5-yl]-3-methylbutanoyl]-4-hydroxy-N-[(1S)-1-[4-(4-methyl-1,3-thiazol-5-yl)phenyl]ethyl]pyrrolidine-2-carboxamide]
- DC50: > 3000 nM

SMILES: CCc1cccc2cc(O)cc(-c3ncc4c(N5CC6CCC(C5)N6)nc(OC[C@]56CCCN5[C@H](COC(=O)N5CCN(c7cc([C@H](C(=O)N8C[C@H](O)C[C@H]8C(=O)N[C@@H](C)c8ccc(C#N)cc8)C(C)C)on7)CC5)CC6)nc4c3F)c12 [Compound 66, [(3S,7aR)-7a-{[(4-{3,8-diazabicyclo[3.2.1]octan-3-yl}-7-(8-ethyl-3-hydroxynaphthalen-1-yl)-8-fluoropyrido[4,3-d]pyrimidin-2-yl)oxy]methyl}-hexahydro-1H-pyrrolizin-3-yl]methyl 4-{5-[(2R)-1-[(2S,4R)-2-{[(1S)-1-(4-cyanophenyl)ethyl]carbamoyl}-4-hydroxypyrrolidin-1-yl]-3-methyl-1-oxobutan-2-yl]-1,2-oxazol-3-yl}piperazine-1-carboxylate]
- Dmax: 60 to 80%
- DC50: < 600 nM

SMILES: Cc1ncsc1-c1ccc([C@H](C)NC(=O)[C@@H]2C[C@@H](O)CN2C(=O)[C@@H](c2cc(N3CCN(C(=O)OC[C@@H]4CC[C@@]5(COc6nc(N7CC8CCC(C7)N8)c7cnc(-c8cccc9ccc(F)c(F)c89)c(F)c7n6)CCCN45)CC3)no2)C(C)C)cc1 (relative stereo) [Compound 269, ((3S,7aR)-7a-(((4-((1R,5S)-3,8-diazabicyclo[3.2.1]octan-3-yl)-7-(7,8-difluoronaphthalen-1-yl)-8-fluoropyrido[4,3-d]pyrimidin-2-yl)oxy)methyl)hexahydro-1H-pyrrolizin-3-yl)methyl 4-(5-((R)-1-((2S,4R)-4-hydroxy-2-(((S)-1-(4-(4-methylthiazol-5-yl)phenyl)ethyl)carbamoyl)pyrrolidin-1-yl)-3-methyl-1-oxobutan-2-yl)isoxazol-3-yl) piperazine-1-carboxylate]
- Dmax: 60 to 80%
- DC50: < 600 nM

SMILES: CCc1cccc2cc(O)cc(-c3ncc4c(N5CC6CCC(C5)N6)nc(OC[C@@]56CCCN5[C@H](CN5CCC(COc7cc([C@H](C(=O)N8C[C@H](O)C[C@H]8C(=O)N[C@@H](C)c8ccc(-c9scnc9C)cc8)C(C)C)on7)CC5)CC6)nc4c3F)c12 [Compound 96, (2S,4R)-1-[(2R)-2-{3-[(1-{[(3S,7aS)-7a-{[(4-{3,8-diazabicyclo[3.2.1]octan-3-yl}-7-(8-ethyl-3-hydroxynaphthalen-1-yl)-8-fluoropyrido[4,3-d]pyrimidin-2-yl)oxy]methyl}-hexahydro-1H-pyrrolizin-3-yl]methyl}piperidin-4-yl)methoxy]-1,2-oxazol-5-yl}-3-methylbutanoyl]-4-hydroxy-N-[(1S)-1-[4-(4-methyl-1,3-thiazol-5-yl)phenyl]ethyl]pyrrolidine-2-carboxamide]
- Dmax: 80 to 100%
- DC50: < 600 nM

SMILES: CCc1cccc2cc(O)cc(-c3ncc4c(N5CC6CCC(C5)N6)nc(OC[C@]56CCCN5[C@H](COC(=O)N5CCN(c7cc([C@@H](C(=O)N8C[C@H](O)C[C@H]8C(=O)N[C@@H](C)c8ccc(-c9scnc9C)cc8)C(C)C)on7)CC5)CC6)nc4c3F)c12 [Compound 87, [(3S,7aR)-7a-{[(4-{3,8-diazabicyclo[3.2.1]octan-3-yl}-7-(8-ethyl-3-hydroxynaphthalen-1-yl)-8-fluoropyrido[4,3-d]pyrimidin-2-yl)oxy]methyl}-hexahydro-1H-pyrrolizin-3-yl]methyl 4-{5-[(2S)-1-[(2S,4R)-4-hydroxy-2-{[(1S)-1-[4-(4-methyl-1,3-thiazol-5-yl)phenyl]ethyl]carbamoyl}pyrrolidin-1-yl]-3-methyl-1-oxobutan-2-yl]-1,2-oxazol-3-yl}piperazine-1-carboxylate]
- Dmax: 20 to 60%
- DC50: 600 to 1000 nM

Reference: US20250206732A1, “COMPOUNDS AND METHODS FOR THE TARGETED DEGRADATION OF KRAS” (Arvinas Operations, Inc., priority 2022, published 2025)
